Structures can show the parent of a compound that is named as a salt. Where two headings read alike, the source gives them in different places.
Key:
Format in all cases: cell-based
[1] = tested on: HCC-1428 breast cancer cells; experiment: SRB cell viability assay, HCC-1428; settings: Homo sapiens, HCC1428, HCC-1428, Breast (ER+ PR+)
Description: (§1) The effect of OSC inhibition was evaluated in additional cancer cell lines as well. Cancer cell lines may be purchased from ATCC (Manassas, Va.). The SRB assay has been employed for determination of the inhibitory effects of RO 48-8071 on growth of different cancer cells. Cells were seeded into 96-well plates and incubated overnight at 37° C. with 5% CO2. The culture medium was removed after 24 hours, and cells were washed with DMEM/F12 medium and then treated with various concentrations of RO 48-8071 in 5% FBS culture medium for 24 and 48 hours. Surviving or adherent cells were fixed in situ by withdrawing the growth medium, adding 100 μl PBS and 100 μl 50% trichloroacetic acid and then incubating at 4° C. for one hour. Cells were washed with ice-cold water, dried at room temperature (RT), and then stained with 50 μl 4% SRB for eight minutes at RT. Unbound dye was removed by washing with cold 1% acetic acid for five times, and plates were dried at RT. Bound stain was solubilized with 150 μl 10 mM Tris buffer and absorbance of samples was read at 520 nm with a SpecTRA MAX 190 microplate reader (Molecular Devices, Sunnyvale, Calif.). Six wells were used for each concentration, and each experiment was performed two to three times.
Effect of RO 48-8071 on estrogen, progesterone, and HER-2/neu receptors positive breast cancer cell line HCC-1428 and ZR-75 viability. […]

[2] = tested on: LNCaP prostate cancer cells; experiment: SRB cell viability assay, LNCaP; settings: Homo sapiens
Description: as §1
Effect of RO 48-8071 prostate cancer cell line LNCaP viability. […] The culture mediums employed 20% FBS RPMI-1640 for culture and 10% FBS RPMI-1640 for treatment.

[3] = tested on: PC-3 and DU-145 human prostate cancer cells; experiment: Annexin V / PI apoptosis assay, prostate cancer cells; settings: 24 hours
Excerpt: Apoptosis is a normal physiologic process which occurs during embryonic development as well as in maintenance of tissue homeostasis. The apoptotic program is characterized by certain morphologic features, including loss of plasma membrane asymmetry and attachment, condensation of the cytoplasm and nucleus, and internucleosomal cleavage of DNA. […]. In apoptotic cells, the membrane phospholipid phosphatidylserine (PS) is translocated from the inner to the outer leaflet of the plasma membrane, thereby exposing PS to the external cellular environment. Annexin V is a 35-36 kDa Ca2+ dependent phospholipid-binding protein that has a high affinity for PS, and binds to cells with exposed PS. Annexin V may be conjugated to fluorochromes including FITC. […]
FITC Annexin V staining precedes the loss of membrane integrity which accompanies the latest stages of cell death resulting from either apoptotic or necrotic processes. […] However, when apoptosis is measured over time, cells can be often tracked from FITC Annexin V and PI negative (viable, or no measurable apoptosis), to FITC Annexin V positive and PI negative (early apoptosis, membrane integrity is present) and finally to FITC Annexin V and PI positive (end stage apoptosis and death). […]

[4] = tested on: MCF-7 breast cancer cells; experiment: SRB cell viability assay, MCF-7; settings: Homo sapiens, MCF7, MCF-7, Breast (ER+ PR+)
Description: as §1
Effect of RO 48-8071 on breast cancer cell line MCF-7 viability. […]

[5] = tested on: PC-3 prostate cancer cells; experiment: SRB cell viability assay, PC-3; settings: Homo sapiens
Description: as §1
Effect of RO 48-8071 on prostate cancer cell line PC-3 viability. […]

DLD-1 colon cancer cells = experiment: SRB cell viability assay, DLD-1; settings: Homo sapiens
Description: as §1
Effect of RO 48-8071 on colon cancer cell line DLD-1 viability. […] The culture mediums employed 10% FBS RPMI-1640 for culture and 5% FBS RPMI-1640 for treatment.

[6] = 24 hours, read-out: IC50 (μM) (24 hours)
[7] = 48 hours, read-out: IC50 (μM) (48 hours)

Molecule `C=CCN(C)CCCCCCOc1ccc(C(=O)c2ccc(Br)cc2)c(F)c1` [Ro 48-8071, 4′-[6-(Allylmethylamino)hexyloxy]-4-bromo-2′-fluorobenzophenone fumarate] has an IC50 [1, 6] of 14.6 ± 0.417 µM, an IC50 [1, 7] of 11.6 ± 0.336 µM and an IC50 [2, 6] of 18.1 ± 3.22 µM. For the same molecule, the IC50 [2, 7] was 11.8 ± 0.431 µM, the “apoptosis and cell death (annexin V / PI positive cells)” value [3] was “Induces Apoptosis and Cell Death” and the IC50 [4, 6] was 12.3 ± 0.585 µM. The IC50 [4, 7] was 6.33 ± 0.344 µM, the IC50 [5, 6] was 17.8 ± 1.29 µM and the IC50 [5, 7] was 11.1 ± 0.35 µM. The IC50 (DLD-1 colon cancer cells; [6]) was 11.5 ± 0.243 µM and the IC50 (DLD-1 colon cancer cells; [7]) was 6.92 ± 0.41 µM.

Reference: US10143686B2, “Oxidosqualene cyclase as a protein target for anticancer therapeutics” (The Curators of the University of Missouri, priority 2010, dated 2018)
